Data set [1] deals with Macrophage metalloelastase (Homo sapiens, UniProt P39900). Description: Inhibition of human recombinant MMP12 using MOCAc-Lys-Pro-Leu-Gly-Leu-A2pr(Dnp)-Ala-Arg-N2 as substrate preincubated for 10 to 15 mins followed by substrate addition and measured after 60 to 120 mins by fluorescence based assay.
The target in data set [2] is MMP-2/MMP-13 (Homo sapiens) (UniProt P08253+P45452). Kind of data set: Selectivity ratio of IC50 for recombinant human MMP13 to IC50 for recombinant human MMP2. Format: protein assay.
Chain of MMP-2/MMP-13 (Homo sapiens) (P08253 whole entry, looked up, other chains not shown): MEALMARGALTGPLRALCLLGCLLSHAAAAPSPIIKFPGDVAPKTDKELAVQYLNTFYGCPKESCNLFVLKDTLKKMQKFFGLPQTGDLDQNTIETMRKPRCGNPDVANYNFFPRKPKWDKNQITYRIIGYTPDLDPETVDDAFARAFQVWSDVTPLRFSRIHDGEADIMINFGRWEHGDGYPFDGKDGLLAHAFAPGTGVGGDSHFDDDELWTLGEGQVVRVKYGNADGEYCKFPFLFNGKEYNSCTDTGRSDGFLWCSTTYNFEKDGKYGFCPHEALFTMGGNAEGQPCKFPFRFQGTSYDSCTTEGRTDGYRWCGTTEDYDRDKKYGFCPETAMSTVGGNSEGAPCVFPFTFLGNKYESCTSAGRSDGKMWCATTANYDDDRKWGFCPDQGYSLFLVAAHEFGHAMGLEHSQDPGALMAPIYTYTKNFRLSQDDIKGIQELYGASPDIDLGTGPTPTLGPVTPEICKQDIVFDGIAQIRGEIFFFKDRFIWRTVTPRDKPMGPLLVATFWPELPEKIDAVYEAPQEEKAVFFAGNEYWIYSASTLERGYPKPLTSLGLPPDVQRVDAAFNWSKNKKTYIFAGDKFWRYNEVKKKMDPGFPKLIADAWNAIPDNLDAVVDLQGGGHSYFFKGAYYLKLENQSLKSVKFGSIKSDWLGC
Data set [3] is filed under the species Homo sapiens. Kind of data set: Selectivity ratio of IC50 for recombinant human MMP12 to IC50 for recombinant human MMP2.
Data set [4] deals with Collagenase 3 (Homo sapiens, UniProt P45452). Description: Inhibition of human recombinant MMP13 using MOCAc-Lys-Pro-Leu-Gly-Leu-A2pr(Dnp)-Ala-Arg-N2 as substrate preincubated for 10 to 15 mins followed by substrate addition and measured after 60 to 120 mins by fluorescence based assay.
The target of data set [5] is T1, 72 kDa type IV collagenase (Homo sapiens, UniProt P08253). Description: Inhibition of recombinant human MMP2 using MOCAc-Lys-Pro-Leu-Gly-Leu-A2pr(Dnp)-Ala-Arg-N2 as substrate preincubated for 10 to 15 mins followed by substrate addition and measured after 60 to 120 mins by fluorescence based assay.
T1 sequence (P08253 whole entry): as the sequence (P08253 whole entry, looked up, other chains not shown) above
The nature of data set [6]: Chemical stability of the compound in phosphate buffer at pH 9 assessed as residual rate incubated for 2 weeks by HPLC analysis. Type of data set: physicochemical. The note with it: read-out: Stability.
Data set [7] in a line: Chemical stability of the compound in phosphate buffer at pH 7.4 assessed as residual rate incubated for 2 weeks by HPLC analysis. Type of data set: physicochemical. The note with it: read-out: Stability.
Data set [8] can be described thus: Chemical stability of the compound in phosphate buffer at pH 4 assessed as residual rate incubated for 2 weeks by HPLC analysis. Type of data set: physicochemical. The note with it: read-out: Stability.
Data set [9] addresses T1, 72 kDa type IV collagenase. Description: Inhibition of MMP2 (unknown origin).

Square brackets hold non-standard residues; d marks the D form. Peptide text beside a SMILES is read from it. * marks the point of attachment. Benzoyl(4-OPh(4-CONH2)) = NC(=O)c1ccc(Oc2ccc(C(=O)*)cc2)cc1; NMeI = CC[C@H](C)[C@H](NC)C(=O)O; NMeE = CN[C@@H](CCC(=O)O)C(=O)O; β3hP = O=C(O)C[C@@H]1CCCN1; Dab = NCC[C@H](N)C(=O)O; Ava = NCCCCC(=O)O

A word on the IC50: it is the midpoint of a concentration-inhibition curve. The term Ki denotes a measure of affinity in units of concentration, obtained from inhibition or displacement.

Chain of Macrophage metalloelastase (P39900 whole entry): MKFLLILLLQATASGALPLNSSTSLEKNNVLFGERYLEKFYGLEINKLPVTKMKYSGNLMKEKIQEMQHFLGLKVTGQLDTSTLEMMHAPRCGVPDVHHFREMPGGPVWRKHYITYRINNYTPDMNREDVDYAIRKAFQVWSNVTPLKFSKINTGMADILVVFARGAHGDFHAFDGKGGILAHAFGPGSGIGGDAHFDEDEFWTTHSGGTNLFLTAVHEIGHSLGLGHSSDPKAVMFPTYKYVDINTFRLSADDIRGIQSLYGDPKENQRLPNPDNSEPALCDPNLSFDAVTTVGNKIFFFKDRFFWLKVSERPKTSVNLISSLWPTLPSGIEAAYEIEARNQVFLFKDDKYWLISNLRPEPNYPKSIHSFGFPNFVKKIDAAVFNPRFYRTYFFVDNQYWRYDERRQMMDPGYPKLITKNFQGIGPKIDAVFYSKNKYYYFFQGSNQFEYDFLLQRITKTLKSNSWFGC

As for `CC[C@H](C)[C@@H](C(=O)NCCCCCC(N)=O)N(C)C(=O)[C@H](CC(C)C)NC(=O)[C@H](CCN)NC(=O)CC[C@@H](NS(=O)(=O)c1ccc(NC(=O)c2ccc(Cl)cc2)cc1)C(=O)O`, the half-maximal inhibitory concentration (IC50) was determined as 260 nM in [1] (read-out: IC50), 280 nM in [4] and 0.1 nM in data set [5]. Besides, the Ratio IC50 in data set [2] stood at 2800; in [3], 2600.

Turning to `CC[C@H](C)[C@@H](C(=O)N1CCC[C@H]1CC(N)=O)N(C)C(=O)[C@H](CC(C)C)NC(=O)[C@H](CCN)NC(=O)CC[C@@H](NS(=O)(=O)c1ccc(NC(=O)c2ccccc2)cc1)C(=O)O`, the values for the IC50 in data set [1] (read-out: IC50), in [4] and in [5] were 990 nM, 630 nM and 0.74 nM, respectively. Moreover, the results for the Ratio IC50 in data set [2] and in [3] were 850 and 1300, respectively.

In the case of `CC[C@H](C)[C@@H](C(=O)NCCCCC(N)=O)N(C)C(=O)[C@H](CC(C)C)NC(=O)[C@@H]1CNCCN1C(=O)CC[C@@H](NS(=O)(=O)c1ccc(NC(=O)c2ccc(Cl)cc2)cc1)C(=O)O`, the IC50 came to 78 nM in [1] (read-out: IC50), 370 nM in [4] and 0.67 nM in data set [5]. Also, the Ratio IC50 was determined as 550 in [2] and 120 in data set [3].

Take `CC(C)C[C@H](NC(=O)[C@H](CCN)NC(=O)[C@H](CC(=O)O)NC(=O)[C@H](CCC(=O)O)NC(=O)CCCCNC(=O)c1ccc(Oc2ccc(C(N)=O)cc2)cc1)C(=O)N(C)[C@@H](CCC(=O)O)C(=O)N1CCC[C@H]1CC(N)=O` ({Benzoyl(4-OPh(4-CONH2))-Ava}-ED[Dab]L[NMeE][β3hP]-NH2): the remaining at 336 h in data set [6] was 87.7%; in data set [7], 89%; in data set [8] it was 69.5%.

For `CC[C@H](C)[C@@H](C(=O)NCCCC(N)=O)N(C)C(=O)[C@H](CC(C)C)NC(=O)[C@H](CCN)NC(=O)CC[C@@H](NS(=O)(=O)c1ccc(NC(=O)c2ccc(Cl)cc2)cc1)C(=O)O`, the figures for the half-maximal inhibitory concentration (IC50) in data set [1] (read-out: IC50), in data set [4] and in [5] were 230 nM, 280 nM and 0.16 nM, respectively. For the same molecule, the Ratio IC50 in [2] was 1800; in [3], 1400.

Turning to `CC(C)C[C@H](NC(=O)[C@@H]1CCCN1C(=O)CC[C@@H](NS(=O)(=O)c1ccc(NC(=O)c2ccc(C(N)=O)cc2)cc1)C(=O)O)C(=O)N(C)[C@@H](CCC(=O)O)C(=O)NCCCCC(N)=O`, the 50% inhibitory concentration (IC50) in data set [1] (read-out: IC50) was 52 nM; in [4], 50 nM; in data set [5] it was 0.31 nM. The Ratio IC50 in data set [2] was determined as 160; in [3], 170.

As to `CC[C@H](C)[C@@H](C(=O)N1CCC[C@H]1CC(N)=O)N(C)C(=O)[C@H](CC(C)C)NC(=O)[C@H](CCN)NC(=O)CC[C@@H](NS(=O)(=O)c1ccc(NC(=O)c2ccc(C(N)=O)cc2)cc1)C(=O)O`, the half-maximal inhibitory concentration (IC50) in data set [1] (read-out: IC50) was 400 nM; in [4], 280 nM; in data set [5], 0.42 nM. Besides, the Ratio IC50 in [2] came out at 670; in data set [3], 950.

In the case of `CC[C@H](C)[C@@H](C(=O)N1CCC[C@H]1CC(N)=O)N(C)C(=O)[C@H](CC(C)C)NC(=O)[C@H](CCN)NC(=O)CC[C@@H](NS(=O)(=O)c1ccc(-c2ccccc2)cc1)C(=O)O`, the 50% inhibitory concentration (IC50) in data set [1] (read-out: IC50) was 240 nM; in data set [4] it was 230 nM; in [5], 6.2 nM. Further, the Ratio IC50 in data set [2] was found to be 37; in data set [3], 39.

As for `CC[C@H](C)[C@@H](C(=O)NCCCCC(N)=O)N(C)C(=O)[C@H](CC(C)C)NC(=O)[C@@H]1C[C@H](N)CN1C(=O)CC[C@@H](NS(=O)(=O)c1ccc(NC(=O)c2ccc(C(N)=O)cc2)cc1)C(=O)O`, the Ratio IC50 was 860 in data set [2] and 550 in data set [3].

Consider `CC[C@H](C)[C@@H](C(=O)NCCC(N)=O)N(C)C(=O)[C@H](CC(C)C)NC(=O)[C@H](CCN)NC(=O)CC[C@@H](NS(=O)(=O)c1ccc(NC(=O)c2ccc(Cl)cc2)cc1)C(=O)O`, for which the results for the IC50 in [1] (read-out: IC50), in [4] and in data set [5] were 240 nM, 280 nM and 0.2 nM, respectively. In addition, the values for the Ratio IC50 in data set [2] and in data set [3] were 1400 and 1200, respectively.

In the case of `CC[C@H](C)[C@@H](C(=O)N1CCC[C@H]1CC(N)=O)N(C)C(=O)[C@H](CC(C)C)NC(=O)[C@H](CCN)NC(=O)CC[C@@H](NS(=O)(=O)c1ccc(NC(=O)c2ccc(Cl)cc2)cc1)C(=O)O`, the values for the IC50 in [1] (read-out: IC50), in data set [4] and in data set [5] were 200 nM, 160 nM and 0.43 nM, respectively. Further, the Ratio IC50 in [2] was found to be 370; in data set [3] it was 470.

Consider `CC[C@H](C)[C@@H](C(=O)N1CCC[C@H]1CC(N)=O)N(C)C(=O)[C@H](CC(C)C)NC(=O)[C@H](CCN)NC(=O)CC[C@@H](NS(=O)(=O)c1ccc(Oc2ccccc2)cc1)C(=O)O`, for which the concentration for half-maximal inhibition (IC50) result is “Not Active” in data set [1] and more than 10 nM in data set [5].

For `CC[C@H](C)[C@@H](C(=O)NCCCCC(N)=O)N(C)C(=O)[C@H](CC(C)C)NC(=O)[C@H](CCN)NC(=O)CC[C@@H](NS(=O)(=O)c1ccc(NC(=O)c2ccc(Cl)cc2)cc1)C(=O)O`, the results for the IC50 in [1] (read-out: IC50), in data set [4] and in data set [5] were 180 nM, 310 nM and 0.11 nM, respectively. Besides, the Ratio IC50 turned out to be 2800 in data set [2] and 1600 in data set [3].

`CC[C@H](C)[C@@H](C(=O)NCCCCC(N)=O)N(C)C(=O)[C@H](CC(C)C)NC(=O)[C@H](CCN)NC(=O)CC[C@@H](NS(=O)(=O)c1ccc(NC(=O)c2ccc(C(N)=O)cc2)cc1)C(=O)O`: the 50% inhibitory concentration (IC50) in data set [1] (read-out: IC50) was determined as 410 nM; in data set [4], 690 nM; in data set [5] it was 0.22 nM. Also, the figures for the Ratio IC50 in data set [2] and in [3] were 3100 and 1900, respectively. Besides, the remaining at 336 h in [6] was determined as 47.6%; in data set [7], 88.8%; in [8], 98.3%.

In turn, `CC[C@H](C)[C@@H](C(=O)N1CCC[C@H]1CC(N)=O)N(C)C(=O)[C@H](CC(C)C)NC(=O)[C@H](CCN)NC(=O)[C@H](CC(=O)O)NC(=O)[C@H](CCC(=O)O)NC(=O)CCCCNC(=O)c1ccc(Oc2ccc(C(N)=O)cc2)cc1` ({Benzoyl(4-OPh(4-CONH2))-Ava}-ED[Dab]L[NMeI][β3hP]-NH2) came in with a concentration for half-maximal inhibition (IC50) in data set [9] of 0.18 nM.

As to H-ISYGNDALMP-OH, in data set [5], the Ki stood at 21 nM.

Source of the values: ChEMBL document CHEMBL5316300, “Discovery of TP0597850: A Selective, Chemically Stable, and Slow Tight-Binding Matrix Metalloproteinase-2 Inhibitor with a Phenylbenzamide-Pentapeptide Hybrid Scaffold” (J Med Chem, 2023).
